Experimental data published in patent US5770624A, “Certain alpha-substituted arylsulfonamido acetohydroxamic acids” (priority 1996, dated 1998).
Where a name gives a salt, the structure may show the parent alone.

Experiments:
[1] = test system: TNF-alpha production by LPS-stimulated THP-1 cells; assay: Effect on the production of soluble TNF-alpha by LPS-stimulated THP-1 cells; assay type: cell-based; conditions: Homo sapiens, 30 min pre-incubation, 100 ng/ml LPS for 4 hours, ELISA
Description: The effect on the production of soluble TNF-alpha by LPS-stimulated THP-1 cells can be determined as follows: Tissue culture medium used is RPM 1640 (Gibco cat #11875-036) containing 10% fetal calf serum, 1% penicillin and streptomycin. TBP-1 cells (ATCC #202-TIB) at 1×10+5 cells/well are added to 100 μl medium or test compound. Cells are pre-incubated with compound for 30 minutes in a 37° C. humidified chamber with 5% CO2 and then stimulated with 100 ng/ml of LPS (Sigma cat #L-4391) for 4 hours. Plates are then centrigued and […] of conditioned medium for TNF analysis is harvested. The amount of TNF-alpha in control and test cultures is determined by ELISA using recombinant TNF-alpha for the standard curve, using TNF ELISA plates (Genzyme) for TNF analysis. Absorbance readings and data calculations are performed on a Molecular Devices plate reader. Results are expressed in IC50 's of test compound.

TNF-alpha (plasma) = assay: Effect on the plasma concentration of TNF-alpha in the mouse following intravenous injection of endotoxin; assay type: in vivo, mouse (Female Balb-CbyJ); conditions: about 50 mg/Kg p.o., dosed 1-4 h before 0.1 mg/kg LPS i.v.
Description: The effect on the plasma concentration of TNF-alpha in the mouse following intravenous injection of endotoxin can be determined as follows:
Female Balb-CbyJ mice are dosed by gavage with test compound in 0.1 ml cornstarch vehicle/10 grams body weight. One to four hours after administration of test compound, 0.1 mg/kg Lipopolysaccharide from E. coli 0127:B8 (Difco #3880-25-0) in saline is injected i.v. One hour after i.v. injection of LPS, blood is collected for determination of plasma TNF-alpha using mouse TNF-alpha ELISA kit (Genzyme). Eight mice are used per treatment group. Results are expressed as % inhibition of mean TNF-alpha concentration in control mice.

[2] = test system: TNF-alpha (synovial fluid); assay: Effect on the synovial fluid concentration of TNF-alpha in an inflamed rat knee; assay type: in vivo, rat (Female lewis); conditions: 50 mg/Kg p.o., dosed 1-4 h before LPS injected into both knees
Description: The effect on the synovial fluid concentration of TNF-alpha in an inflamed rat knee can be determined as follows: Female lewis rats are dosed by gavage with test compound in 0.1 ml cornstarch vehicle. One to four hours after administration of test compound 0.1 mg Lipopolysaccharide from E. coli 0127:B8 (Difco #3880-25-0) is injected into both knees. Two hours after intra-articular LPS injection, knees are lavaged with 0.1 ml saline and 2 lavages from same rat are pooled. TNF-alpha is measured using mouse TNF-alpha ELISA kit (Genzyme) which crossreacts with rat TNF-alpha Results are expressed as % inhibition of mean TNF-alpha concentration in synovial fluid from saline-injected knees.

[3] = test system: collagen-II induced arthritis in mice; assay: Collagen II induced arthritis model in mice; assay type: in vivo; conditions: mouse, 100 mg/Kg p.o.
Excerpt: Antiinflammatory activity can be determined in standard inflammation and arthritic animal models well-known in the art, e.g. the adjuvant arthritis model in rats and the collagen II induced arthritis model in mice [Mediators of […]. 1, 273-279 (1992)].

[4] = molecular target: T1, recombinant human stromelysin (Homo sapiens, UniProt P08254); assay: Inhibition of stromelysin activity (hydrolysis of Substance P); assay type: biochemical; conditions: 30 min at 37° C.
T1 construct: recombinant human stromelysin (mol. wt. 45-47 kDa, 2 Units)
Description: One test to determine the inhibition of stromelysin activity is based on its hydrolysis of Substance P using a modified procedure of Harrison et al (Harrison, […]., and Stein R., A semicontinuous, high performance chromatography based assay for stromelysin, Anal. Biochem. 18, 110-113 (1989)). In this assay, Substance P is hydrolyzed by recombinant human stromelysin to generate a fragment, Substance P 7-11, which can be quantitated by HPLC. In a typical assay, a 10 mM stock solution of a compound to be tested is diluted in the assay buffer to 50 μM, mixed 1:1 with 8 μg recombinant human stromelysin (mol. wt. 45-47 kDa, 2 Units; where 1 Unit produces […] of Substance P 7-11 in 30 minutes) and incubated along with 0.5 mM Substance P in a final volume of 0.125 ml for 30 minutes at 37° C. The reaction is stopped by adding 10 mM EDTA and Substance P 7-11 is quantified on RP-8 HPLC. The IC50 for inhibition of stromelysin activity and Ki are calculated from control reaction without the inhibitor.

[5] = molecular target: T2, Human recombinant fibroblast collagenase (Homo sapiens, UniProt P03956); assay: Collagenase activity (digestion of bovine type I collagen); assay type: biochemical; conditions: 2 hours at 35° C., read-out: IC50 for inhibition of collagenase activity
T2 sequence (P03956 100-469): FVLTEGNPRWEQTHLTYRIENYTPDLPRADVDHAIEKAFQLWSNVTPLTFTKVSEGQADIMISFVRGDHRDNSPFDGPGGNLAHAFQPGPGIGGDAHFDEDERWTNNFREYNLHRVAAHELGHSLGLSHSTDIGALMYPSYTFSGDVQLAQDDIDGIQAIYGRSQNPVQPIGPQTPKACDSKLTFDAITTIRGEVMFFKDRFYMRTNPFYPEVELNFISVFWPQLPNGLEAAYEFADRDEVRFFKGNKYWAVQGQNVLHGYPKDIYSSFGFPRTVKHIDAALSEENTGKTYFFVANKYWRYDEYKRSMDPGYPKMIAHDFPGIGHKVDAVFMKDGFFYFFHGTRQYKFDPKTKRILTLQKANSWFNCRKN
Description: Collagenase activity is determined as follows: ninety six-well, flat-bottom microtiter plates are first coated with bovine type I collagen (35 ug/well) over a two-day period at 30° C. using a humidified and then dry atmosphere; plates are rinsed, air dried for 34 hours, sealed with Saran wrap and stored in a refrigerator. Human recombinant fibroblast collagenase and a test compound (or buffer) are added to wells (total volume =0.1 ml) and plates are incubated for 2 hours at 35° C. under humidified conditions; the amount of collagenase used per well is that causing approximately 80% of maximal digestion of collagen. The incubation media are removed from the wells, which are then rinsed with buffer, followed by water. Coomasie blue stain is added to the wells for 25 minutes, removed, and wells are again rinsed with water. Sodium dodecyl sulfate (20% in 50% dimethylformamide in water) is added to solubilize the remaining stained collagen and the optical density at 570 nm wave length is measured. The decrease in optical density due to collagenase (from that of collagen without enzyme) is compared to the decrease in optical density due to the enzyme in the presence of test compound, and percent inhibition of enzyme activity is calculated. IC50's are determined from a range of concentrations of inhibitors (4-5 concentrations, each tested in triplicate), and Ki values are calculated.

T1 sequence (P08254 100-477): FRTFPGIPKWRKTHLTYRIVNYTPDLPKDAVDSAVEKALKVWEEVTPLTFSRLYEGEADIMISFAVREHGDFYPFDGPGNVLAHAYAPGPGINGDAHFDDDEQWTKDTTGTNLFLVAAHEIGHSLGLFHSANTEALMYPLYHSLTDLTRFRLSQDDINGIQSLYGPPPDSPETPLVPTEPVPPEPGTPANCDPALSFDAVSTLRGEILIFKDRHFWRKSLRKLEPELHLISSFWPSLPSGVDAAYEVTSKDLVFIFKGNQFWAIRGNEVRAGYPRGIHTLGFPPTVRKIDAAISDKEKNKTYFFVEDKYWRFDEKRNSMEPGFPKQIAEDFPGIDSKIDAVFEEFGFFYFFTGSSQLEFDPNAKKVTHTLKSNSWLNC

SMILES	IC50 [1]	% inhibition of mean plasma TNF-alpha concentration in control mice (TNF-alpha (plasma))	reduction of TNF-α concentration in the synovial fluid [2]	inhibition of collagen-II induced arthritis in mice [3]	IC50 [4]	IC50 [5]
CCCO[C@H]1CC[C@H]([C@H](C(=O)NO)N(Cc2ccncc2)S(=O)(=O)c2ccc(OC)cc2)CC1 [Example 1, hydrochloride]	~2500 nM	50%	about 70%	effective in inhibiting collagen-II induced arthritis	~16 nM	~80 nM
CCCO[C@H]1CC[C@H]([C@H](C(=O)NO)N(Cc2ccncc2)S(=O)(=O)c2ccc(OCC)cc2)CC1.Cl [2(u), N-hydroxy-2(R)-[(4ethoxybenzenesulfonyl)(4-picolyl)amino]-2-(trans-4-propoxycyclohexyl)acetamide hydrochloride]	~2500 nM	–	~98%	effective in inhibiting collagen-II induced arthritis	~11 nM	~45 nM
